For eleven compounds, MIC results are on record in PMC7495458, “Generating Ampicillin-Level Antimicrobial Peptides with Activity-Aware Generative Adversarial Networks” (ACS Omega, 2020).

Values after ≈ are worked out from the molar mass of the structure shown. Like-named read-outs stand apart in the source and are kept apart here. No end group written: not given here.

This assay relates to E. coli TOP10. The assay can be described thus: microbe, parasite or virus in culture. It is filed as cell-based. The method, then:
The potency of the peptides is evaluated based on MIC against E. coli. MIC is determined as the minimum concentration of an antimicrobial at which the growth of a target microbe is suppressed. […] The high production ratio, 5/6, and the sufficiently low MIC of AMP4 validate PepGAN’s ability to generate industry-level peptides.
The MICs of the peptides were determined using the microdilution test with some modifications. We used E. coli TOP10 (Thermo Scientific, MA, USA) in the late-log phase for this test. The colony forming unit (cfu) of E. coli was determined using optical density at 600 nm. For each peptide, we prepared 11 wells containing 150 μL of 5 × 10^5 cfu/mL of E. coli and the series of concentration of each peptide from 10 to 0.01 μg/mL (2-fold dilution for 10 times). We also prepared one well containing only 150 μL of 5 × 10^5 cfu/mL of E. coli without the peptide. Similarly, we prepared 11 wells for ampicillin in the same well-plate. We incubate the plates for 26 h at 37 °C for the growth of E. coli. To read the optical density for each well, we set the plates in a plate reader (EnSpire 2300, PerkinElmer). After shaking the plate for 10 s at 300 rpm in double-orbital motion (diameter 1 mm), we measured the optical density of each solution (600 nm).

For `CC1(C)S[C@@H]2[C@H](NC(=O)[C@H](N)c3ccccc3)C(=O)N2[C@H]1C(=O)O` [ampicillin], the MIC (Escherichia coli, microdilution test, E. coli TOP10 late-log phase, 5 × 10^5 cfu/mL, 150 μL, 2-fold dilutions, 26 h at 37 °C, optical density 600 nm, read-out: MIC) stood at 6.25 µg/mL (≈ 17.9 µM). As for EIEYGNPGVGTDR-NH2 [AMP9NC], the MIC (TOP10, 26 h) was >100 µg/mL.

Take FLGPIIKTVRAVLCAIKKL-NH2 [AMP6]: the MIC (TOP10, 26 h) amounted to 25 µg/mL. In turn, FLPAFKNVISKILKALKKKV-NH2 [AMP5] had an MIC (TOP10, 26 h) of 12.5 µg/mL.

On to GLKKLFSKIKIIGSALKNLA-NH2 [AMP4], for which the MIC (TOP10, 26 h) is 3.1 µg/mL. For GLRSSVKTLLRGLLGIIKKF-NH2 [AMP3], the MIC (TOP10, 26 h) was >100 µg/mL. In turn, IKALLALPKLAKKIAKKFLK-NH2 [AMP2] came in with an MIC (TOP10, 26 h) of 50 µg/mL.

On to ILPLLKKFGKKFGKKVWKAL-NH2 [AMP1], for which the MIC (TOP10, 26 h) was found to be 25 µg/mL. Still for that read-out and setting: the result for KRFLPSCVRSIQNLDDALPTPEEF-NH2 [AMP8NC] reads >100 µg/mL. With LFTMADPIQSIEKEI-NH2 [AMP7NC], the MIC (TOP10, 26 h) was >100 µg/mL.

Turning to TLPEWDDRRVVNS-NH2 [AMP10NC], the MIC (TOP10, 26 h) was >100 µg/mL.
